Results published in patent US11286263B2, “Macrocyclic fluorine substituted indole derivatives” (The Broad Institute, Inc., priority 2017, dated 2022).
Where “and” joins values, the source holds several entries; their conditions need not be identical. Equal values may be shown once. Where a name gives a salt, the structure may show the parent alone. Read-outs that look alike come from different tables or passages of the source.

Assays:
[1] = biological target: MCL-1 (Homo sapiens (Human), UniProt Q07820, K194A/K197A/R201A); assay: Protein-protein interaction assay MCL-1/Noxa BH3 peptide (MCL-1 assay), TR-FRET; type: binding; conditions: MCL-1/Noxa BH3 peptide TR-FRET; median
Outline: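 TR-FRET competition between MBP-MCL-1 (173-321, 1 nM) and biotin-Noxa BH3 peptide (1 nM) with anti-MBP-Eu/streptavidin-XL665; 11 compound levels 0.1 nM–20 μM, 10 min preincubation. Incubated 1 h at 22 °C then overnight at 4 °C, pH 7 Tris buffer. 665/620 ratio normalized to DMSO and no-MCL-1; 4-parameter IC50.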

[2] = tested on: A2780; assay: Antiproliferation assay A2780 (Assay 7); type: cell-based; conditions: A2780 cells, CellTiter-Glo, single determinations, read-out: IC50 Antiproli A2780
Outline: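 CellTiter-Glo luminescence readout; 72 h compound exposure, 37 °C, humidified; rim wells excluded; time-zero reference plate plated in parallel and read identically.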

[3] = tested on: SUDHL10; assay: Induction of cytotoxicity, SUDHL10 (Assay 6); conditions: read-out: IC50 Cytotox SUDHL10 [M] (median), SUDHL10 cells, 5 h, CellTiter-Glo
Description: In principle, compounds that induce apoptosis will concomitantly induce cell cytotoxicity. Therefore, cytotoxicity assays were run in parallel in SUDHL5 and SUDHL10 cells.
The different cell lines were plated in culture medium (RPMI 1640 [GIBCO #22400-089] supplemented with 10% Fetal Bovine Serum) at a density of 3,300 cells in 30 μl/well in a sterile, solid black, flat bottom, polystyrene, TC-treated 384-well microplate (Corning #3571) using Multidrop Combi Reagent Dispenser. As a control, medium without cells was also added to the plate. Cells were incubated in a humidified incubator at 37° C. overnight. On the next day, the cells were treated with compounds (stock solution, 10 mM in DMSO) using the HP D300 Digital Dispenser in a concentration range of 3.3×10e-5 M (33 μM) to 5×10e-9 M (5 nM) in a single-dot curve with at least 16 dilutions and a DMSO concentration of 0.33%. Rim wells were excluded. The cells were incubated for 5 h hours in a humidified incubator at 37° C. After this incubation, 30 μl of CellTiter-Glo® Luminescent Cell Viability reagent (Promega, G7573) was added to each well using the Multidrop Combi Reagent Dispenser, followed by 15 min incubation on a shaker at room temperature. Finally, luminescence was read at 0.1 ms, with a gain of 3000 using the PHERAstar FS microplate reader (BMG Labtech).
The Bella DRC Master Sheet was used to calculate IC50s, with fixed CI=0 and C0=1.

Sequence of MCL-1 (Q07820 whole entry K194A/K197A/R201A, looked up): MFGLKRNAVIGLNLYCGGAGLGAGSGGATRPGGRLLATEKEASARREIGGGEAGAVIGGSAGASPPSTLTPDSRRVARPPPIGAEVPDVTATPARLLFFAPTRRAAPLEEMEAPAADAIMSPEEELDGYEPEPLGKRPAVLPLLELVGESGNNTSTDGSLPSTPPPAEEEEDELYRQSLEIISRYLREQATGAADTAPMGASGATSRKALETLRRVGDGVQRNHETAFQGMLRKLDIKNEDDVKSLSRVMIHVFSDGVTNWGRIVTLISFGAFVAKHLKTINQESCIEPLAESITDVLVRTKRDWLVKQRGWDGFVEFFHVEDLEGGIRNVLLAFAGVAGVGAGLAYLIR

Row | SMILES | IC50 [1] | IC50 ([2]; 72 h, listed as 02) | IC50 ([2]; Homo sapiens, A2780, 72 h) | IC50 ([3]; Homo sapiens, SU-DHL10, 5 h) | IC50 [3] | IC50 ([2]; 72 h, listed as 03) | IC50 ([2]; 72 h)
1 | Cc1c2c(nn1C)COCCCCn1c(C(=O)O)c(CCCOc3cccc4ccccc34)c3ccc(F)c-2c31 (racemic) [Example 2, (rac)-4-fluoro-2,3-dimethyl-7-[3-(naphthalen-1-yloxy)propyl]-2,10,11,12,13,15-hexahydro-pyrazolo[4′,3′:9,10][1,6]oxazacycloundecino[8,7,6-hi]indole-8-carboxylic acid] | 0.0012 µM | 12.2 µM and 14.5 µM | 13 µM | 1.6e-06 M | – | – | –
2 | CCc1c2c(nn1C)COCCCCn1c(C(=O)O)c(CCCOc3cccc4cc(F)ccc34)c3ccc(F)c-2c31 (single isomer, unassigned; enantiomer 1) [Example 22, 3-ethyl-4-fluoro-7-{3-[(6-fluoronaphthalen-1-yl)oxy]propyl}-2-methyl-2,10,11,12,13,15-hexahydropyrazolo[4′,3′:9,10][1,6]oxazacycloundecino[8,7,6-hi]indole-8-carboxylic acid-N-ethylethanamine salt (enantiomer 1)] | 0.00045 µM | – | 3.88 µM | – | 5.5e-07 M | – | –
3 | CCc1c2c(nn1C)COCCCCn1c(C(=O)O)c(CCCOc3cc(C)c(Cl)c(C)c3)c3ccc(F)c-2c31 (racemic) [Example 31, (rac)-1-(3-(4-chloro-3,5-dimethylphenoxy)propyl)-12-ethyl-13-fluoro-11-methyl-4,5,6,7,9,11-hexahydropyrazolo[4′,3′:9,10][1]oxa[6]azacycloundecino[8,7,6-hi]indole-2-carboxylic acid] | 0.0018 µM | – | 12.1 µM | 3.6e-06 M | – | – | –
4 | Cc1nn(C)c2c1-c1c(F)ccc3c(CCCOc4cccc5ccccc45)c(C(=O)O)n(c13)CCCCOC2 (racemic) [Example 10, (rac)-13-fluoro-10,12-dimethyl-1-(3-(naphthalen-1-yloxy)propyl)-4,5,6,7,9,10-hexahydro-pyrazolo[4′,3′:9,10][1]oxa[6]azacycloundecino[8,7,6-hi]indole-2-carboxylic acid] | 0.0011 µM | – | > 33 µM | 3.6e-06 M | – | – | –
5 | Cc1c2c(nn1C)COCCCCn1c(C(=O)O)c(CCCOc3cccc4ccccc34)c3ccc(F)c-2c31 (single isomer, unassigned; enantiomer 1) [Example 3, 4-fluoro-2,3-dimethyl-7-[3-(naphthalen-1-yloxy)propyl]-2,10,11,12,13,15-hexahydropyrazolo-[4′,3′:9,10][1,6]oxazacycloundecino[8,7,6-hi]indole-8-carboxylic acid-N-ethylethanamine salt (enantiomer 1)] | 0.0013 µM | – | – | 1.1e-06 M | – | 23.8 µM and 17.6 µM and 15.3 µM | –
6 | Cc1nn(C)c2c1-c1c(F)ccc3c(CCCOc4cccc5c4CCC5)c(C(=O)O)n(c13)CCCCOC2 (racemic) [Example 35, (rac)-1-(3-((2,3-dihydro-1H-inden-4-yl)oxy)propyl)-13-fluoro-10,12-dimethyl-4,5,6,7,9,10-hexahydropyrazolo[4′,3′:9,10][1]oxa[6]azacycloundecino[8,7,6-hi]indole-2-carboxylic acid] | 0.0013 µM | – | 15 µM | 1.5e-05 M | – | – | –
7 | CCc1nn(C)c2c1-c1c(F)ccc3c(CCCOc4cccc5cc(F)ccc45)c(C(=O)O)n(c13)CCCCOC2 (single isomer, unassigned; enantiomer 1) [Example 39, 3-ethyl-4-fluoro-7-{3-[(6-fluoronaphthalen-1-yl)oxy]propyl}-1-methyl-1,10,11,12,13,15-hexahydropyrazolo[4′,3′:9,10][1,6]oxazacycloundecino[8,7,6-hi]indole-8-carboxylic acid-N-ethylethanamine salt (enantiomer 1)] | 0.0008 µM | – | – | – | 1e-06 M | – | 4.84 µM
8 | CCc1nn(C)c2c1-c1c(F)ccc3c(CCCOc4cccc5ccccc45)c(C(=O)O)n(c13)C/C=C\COC2 (racemic) [Example 11, (rac)-(Z)-12-ethyl-13-fluoro-10-methyl-1-(3-(naphthalen-1-yloxy)propyl)-4,7,9,10-tetrahydro-pyrazolo[4′,3′:9,10][1]oxa[6]azacycloundecino[8,7,6-hi]indole-2-carboxylic acid] | 0.0022 µM | – | 15.3 µM | 7.2e-06 M | – | – | 23.5 µM
